Measured values taken from patent US6632794B1, “Insulin-like growth factor agonist molecules” (Genentech, Inc., priority 1997, dated 2003).

Tests used:
[1] = system: dwarf rats; test: Long-term administration to GH-deficient dwarf (dw/dw) rats; assay type: in vivo, rat; details: for retroperitoneal fat depot weight: at sacrifice; for AST / BUN / CK / Creatinine / Glucose / Insulin: serum at sacrifice, Means ± SEM
Excerpt: Young female dwarf rats (11-12 wk of age, 115-140 g) were bred by homozygous mating (Charles Rivers Laboratories) and delivered to the Genentech Animal House where they were housed five per cage on polystyrene chips and fed a standard animal chow and water ad libitum, and kept in a room of constant humidity and with controlled temperature and lighting. The animals were weighed, and based on uniformity of body weight, 37 of the animals were selected and randomized into treatment groups and cages to give six treatment groups of equal initial body weights (approximately 120 g).
The study consisted of six groups of rats with six or seven rats per group.
The mutant (Leu^24,Ala^31)hIGF-I and native sequence recombinant human IGF-I were administered by osmotic minipumps (ALZET 2001™, Alza, Palo Alto, Calif.) which were placed in a subcutaneous tunnel in the dorsal neck region while the rats were anesthetized with KETAMINE/XYLAZINE™ anesthesia. The pumps were filled with solutions so that the calculated daily dose was 120 μg per rat per day (1 mg/kg/day), assuming that the pump delivered as per the manufacturer's description (24 μl of solution per day).
Recombinant human GH (50 μg/day) was administered for eight days by twice daily sc injection, with each injection being of 25 μg in a volume of 100 μl.
Body weights were measured daily in the morning. After 8 days the animals were anesthetized using CO2 and exsanguinated by cardiac puncture. The remaining blood was allowed to clot and serum was separated and stored for further analysis.
(§1) Spleen, thymus, heart, liver, kidney, and perirenal fat were removed and weighed. The tibia was removed and fixed in neutral buffered formalin for histological measurement of epiphyseal plate width.
Serum chemistries were measured using a TECHNICON CHEM I PLUS™ analyzer. Serum insulin concentration was measured using an RIA kit supplied by Linco, Inc. To measure the IGF-I concentrations the serum was extracted using acid ethanol and the supernatant diluted to neutrality and assayed for IGF-I by RIA. The concentration of rat IGF-I in serum extract was measured by RIA using a kit from Diagnostic Systems Laboratories, Inc. Human IGF-I concentration was measured by RIA at Genentech, Inc.
Tibia were sectioned longitudinally, stained with TOLULENE BLUE™ stain and mounted on microscope slides. The tibial epiphyseal plate width was measured using an ocular micrometer attached to a microscope.
Data were analyzed statistically by analysis of variance using one-factor ANOVA followed by Duncan's Range Test.

[2] = system: endogenous IGFBPs present in human serum; test: Displacement of ^125I-IGF-I from IGFBPs in human serum (FPLC-SEC); assay type: binding; details: normal human serum, IGF mutant 40 μg/ml, mean ± SD, n = 3
Procedure: To determine if the IGF mutant could displace IGF-I from endogenous IGFBPs present in human serum, the following experiment was performed. Radiolabeled rhIGF-I (^125-IGF-I) was incubated with normal human serum samples at a concentration of 33 ng/ml for 16 hr at 4° C. to allow for the formation of […] complexes. […] The samples (n=3) were then analyzed by FPLC size-exclusion chromatography (FPLC-SEC) to determine the relative size and amounts of the ^125I-IGF-I:IGFBP complexes.
Data are expressed as cpm per fraction (n=1).
This Example tests an IGFBP-3-specific peptide, BP15, for its ability to block the binding of ^125I-IGF-I in human serum. Human serum was incubated with ^125I-IGF-I±the peptide and the amount of tracer bound to IGFBPs via size-exclusion chromatography was measured.

[3] = system: hypophysectomized rats; test: Long-term administration to hypophysectomized rats; assay type: in vivo, rat; details: one week
Excerpt: Young female SD rats were hypophysectomized at Taconic Laboratories and delivered several days later. The rats were then weighed frequently and those whose weight increased or decreased by more than 7 grams between 2 and 3 weeks following hypophysectomy were excluded from the study. Twenty-five rats were grouped randomly into five groups based on their body weight, and then randomly assigned to cages, with four rats per cage. The animals were allowed ad libitum access to food and water and housed in a room controlled for temperature and lighting.
1) Excipient pump, excipient injections;
2) (Leu^24,Ala^31)hIGF-I (10 μg/day, by SC minipump), excipient injections;
3) (Leu^24,Ala^31)hIGF-I (50 μg/day, by SC minipump), excipient injections;
4) Recombinant human GH (NUTROPIN™ brand from Genentech, Inc., 20 μg/day, by SC injection, two injections each of 10 μg/day), excipient minipump; or
5) (Leu^24,Ala^31)hIGF-I (50 μg/day, by SC minipump) plus recombinant human GH (20 μg/day, by SC injection, two injections each of 10 μg/day).
The rats were dosed for one week.
The mutant (Leu^24,Ala^31)hIGF-I was administered by osmotic minipumps (ALZET 2001™, Alza, Palo Alto, Calif.), which were placed in a subcutaneous tunnel in the dorsal neck region of the rats while they were anesthetized with KETAMINE™/XYLAZINE™ anesthesia. The pumps were filled with solutions so that the calculated daily dose was 50 μg or 10 μg, assuming that 24 μl of solution was delivered each day for one week.
Recombinant human GH was administered for one week by twice daily SC injections of 10 μg in 100 μl volume.
Body weights were measured daily in the morning. At the end of the week of dosing the animals were anesthetized via CO2 and exsanguinated via cardiac puncture. The remaining blood was allowed to clot and serum was separated and stored for further analysis.
as §1
Serum chemistries were measured on an automated Chem I analyzer. Serum insulin concentration was measured using an RIA Kit supplied by Linco, Inc. To measure the IGF-I concentrations the serum was extracted using acid ethanol and the supernatant diluted to neutrality and assayed for IGF-I by RIA.
Tibia were sectioned longitudinally, stained with Toluene Blue, and mounted on microscope slides. The tibial epiphyseal plate width was measured using an ocular micrometer attached to a microscope.
Data were analyzed statistically by analysis of variance using one factor and two factor ANOVA.

[4] = system: L7 murine fibroblasts; details: Bayne et al.; cited from earlier work
[5] = Day one, 120 μg/day each by pump

IGF-I: native-sequence recombinant human insulin-like growth factor-I (Genentech)
epiphyseal plate widths ([1]; 8 days): significantly (p<0.05) increased | body weight gain [1, 5]: 1.2 ± 0.4 g | retroperitoneal fat depot weight ([1]; 120 μg/day each by pump): 0.48 ± 0.06 g | AST ([1]; 8 days): 128 ± 11 U/l | BUN ([1]; 8 days): 16.0 ± 0.7 mg/dL | CK ([1]; 8 days): 225 ± 18 u/l | Creatinine ([1]; 8 days): 0.22 ± 0.05 mg/dL | Glucose ([1]; 8 days): 190 ± 24 mg/dL | Insulin ([1]; 8 days): 0.54 ± 0.06 ng/mL

(Leu^24,Ala^31)hIGF-I
Free (˜7 kDa) ^125I-IGF-I, percent of total radioactivity ([2]; 0 hr): 9.3 ± 2.3% | ^125I-IGF-I in ˜44 kDa range, percent of total radioactivity ([2]; 0 hr): 60.5 ± 0.8% | ^125I-IGF-I in ˜150 kDa range, percent of total radioactivity ([2]; 0 hr): 30.3 ± 1.4% | Free (˜7 kDa) ^125I-IGF-I, percent of total radioactivity ([2]; 0.5 hr): 38.2 ± 3.7% | ^125I-IGF-I in ˜44 kDa range, percent of total radioactivity ([2]; 0.5 hr): 37.3 ± 2.9% | ^125I-IGF-I in ˜150 kDa range, percent of total radioactivity ([2]; 0.5 hr): 24.4 ± 0.8% | Free (˜7 kDa) ^125I-IGF-I, percent of total radioactivity ([2]; 3 hr): 61.9 ± 2.6% | ^125I-IGF-I in ˜44 kDa range, percent of total radioactivity ([2]; 3 hr): 27.8 ± 1.5% | ^125I-IGF-I in ˜150 kDa range, percent of total radioactivity ([2]; 3 hr): 10.3 ± 1.1% | Free (˜7 kDa) ^125I-IGF-I, percent of total radioactivity ([2]; 24 hr): 81.9 ± 0.5% | ^125I-IGF-I in ˜44 kDa range, percent of total radioactivity ([2]; 24 hr): 12.6 ± 0.4% | ^125I-IGF-I in ˜150 kDa range, percent of total radioactivity ([2]; 24 hr): 5.5 ± 0.1% | blood levels of endogenous rat IGF-I [3]: lower | total IGF-I (rat and human) in blood ([3]; IGF agonist 10 μg): not a rise in total IGF | body weight gain ([3]; IGF agonist 10 μg/day SC minipump): mean weight gain that was numerically smaller than that of the control group | total IGF-I (rat and human) in blood ([3]; IGF agonist 50 μg alone or with GH): rise in total IGF-I | body weight gain ([3]; IGF agonist 50 μg/day SC minipump, hGH 20 μg/day SC, or both): only a small amount of activity | absolute thymus weight ([3]; IGF agonist 50 μg/day, hGH 20 μg/day, or both): increased | absolute and relative heart weight ([3]; IGF agonist 10 and 50 μg, hGH 20 μg/day, or combination): significant increase in the absolute and the relative size of the heart | absolute spleen weight ([3]; IGF mutant 10 and 50 μg/day, hGH 20 μg/day, or hGH plus 50 μg/day): increased by both doses | bone growth (tibial epiphyseal plate width) ([3]; low-dose mutant (10 μg/day)): did not increase bone growth | bone growth (tibial epiphyseal plate width) ([3]; mutant 50 μg/day alone or with rhGH): significant increase in bone growth | reduction in activity, ^3H thymidine incorporation [4]: more than 200 fold | blood levels of endogenous rat IGF-I ([1]; 8 days): lower | epiphyseal plate widths ([1]; 8 days): increased the mean plate widths compared to the individual treatments, but these increases did not reach statistical significance | absolute spleen weight ([1]; 8 days, 120 μg/day by pump): 350 ± 14 mg | body weight gain [1, 5]: 0.5 ± 0.6 g | retroperitoneal fat depot weight ([1]; 120 μg/day each by pump): 0.53 ± 0.10 g | body weight gain ([1]; day 6, 120 μg/day by pump): 4.2 ± 0.6 g | AST ([1]; 8 days): 143 ± 8 U/l | BUN ([1]; 8 days): 17.8 ± 0.4 mg/dL | CK ([1]; 8 days): 301 ± 44 u/l | Creatinine ([1]; 8 days): 0.23 ± 0.03 mg/dL | Glucose ([1]; 8 days): 174 ± 18 mg/dL | Insulin ([1]; 8 days): 0.88 ± 0.09 ng/mL
